# Test results reported in patent US20070280938A1, “Peptides Derived from Natural Cytotoxicity Receptors and Methods of Use Thereof” (YISSUM RESEARCH AND DEVELOPMENT COMPANY OF THE HEBREW …, priority 2003, published 2007).
# Entries after “also recorded” stand apart in the source; their conditions may differ.
# B1: NKp30-Ig: protein conjugate comprising CD5 leader sequence and NKp30 D domain fused to Fc domain (protein)
# chain: MAWRALHPLLLLLLLFPGSQAQSKAQVLQSVAGQTLTVRCQYPPTGSLYEKKGWCKEASALVCIRLVTSSKPRTMAWTSRFTIWDDPDAGFFTVTMTDLREEDSGHYWCRIYRPSDNSVSKSVRFYLVVSPASASTQTPWTPRDLVSSQTQTQSCVPPTAGARQAPESPSTIPVPSQPQNSTLRPGPAAPIALVPVFCGLLVAKSLVLSALLVWWGDIWWKTVMELRSLDTQKATCHLQQVTDLPWTSVSSPVEREILYHTVARTKISDDDDEHTL
# modifications: homo sapiens
# B2: NKp46D2-Ig: truncated fusion protein: D2 of NKp46 with CD5 leader fused to Fc portion of human IgG1 (protein)
# chain: MAWMLLLILIMVHPGSCALWVSQPPEIRTLEGSSAFLPCSFNASQGRLAIGSVTWFRDEVVPGKEVRNGTPEFRGRLAPLASSRFLHDHQAELHIRDVRGHDASIYVCRVEVLGLGVGTGNGTRLVVEKEHPQLGAGTVLLLRAGFYAVSFLSVAVGSTVYYQGKCLTWKGPRRQLPAVVPAPLPPPCGSSAHLLPPVPGG
# modifications: homo sapiens
# Assays:
# NKp30-Ig [1] = target: T1, NKp30-Ig (Homo sapiens, UniProt O14931); test: Inhibition of NKp30-Ig binding to tumor cells by premixed saccharides (flow cytometry); conditions: cell line not specified
# T1 construct: made in house
# T1 sequence (O14931 with tags, fused parts or gaps P25L): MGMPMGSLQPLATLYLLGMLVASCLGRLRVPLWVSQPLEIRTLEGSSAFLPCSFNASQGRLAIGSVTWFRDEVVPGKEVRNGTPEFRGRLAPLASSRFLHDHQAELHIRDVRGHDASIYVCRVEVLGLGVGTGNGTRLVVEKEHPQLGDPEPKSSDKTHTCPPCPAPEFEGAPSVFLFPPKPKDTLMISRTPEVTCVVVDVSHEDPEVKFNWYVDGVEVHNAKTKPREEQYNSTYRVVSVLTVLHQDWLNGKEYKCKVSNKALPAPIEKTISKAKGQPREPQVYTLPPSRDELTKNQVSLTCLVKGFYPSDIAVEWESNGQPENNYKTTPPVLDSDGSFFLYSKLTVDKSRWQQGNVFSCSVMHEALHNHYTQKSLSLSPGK
# Experimental: (§1) Cells were incubated with the various fusion-Igs for 2 h at 4° C., washed and stained with FITC-conjugated-F(ab′)2-Goat-anti-human-IgG-Fcy (109-096-098, Jackson ImmunoResearch, West Grove, Pa.). Staining and washing buffer consisted of 0.5% (w/v) BSA and 0.05% sodium azide in PBS. Staining of CHO and mutant CHO cells was carried out with 2% FCS instead of bovine serum albumin (BSA) in the different buffers. Propidium iodide (PI) was added prior to reading for exclusion of dead cells. Flow cytometry was performed using a FACSCalibur flow cytometer (Becton Dickinson, Mountain View, Calif.). Data files were acquired and analyzed using BD CELLQuest™ 3.3 software.
# (§2) For most binding inhibition experiments, 20 μg of fusion-Ig were premixed with the GAG and added to cells for staining as above. In all experiments, each sample was stained twice in different wells. When results are presented as MFI (median fluorescence intensity), average MFI∓SD of the duplicate staining is shown to reveal consistency of staining procedure. Human IgG1 (hIgG1 kappa, PHP010) was purchased from Serotec, Oxford, UK. Staining with the anti-heparin/heparan sulfate antibody HS4E4 was previously described (35).
# NKp46D2-Ig [2] = target: T2, NKp46D2-Ig (Homo sapiens, UniProt O76036); test: Inhibition of NKp46D2-Ig binding to tumor cells by premixed saccharides (flow cytometry); conditions: for Inhibition of binding of NKp46D2-Ig to tumor cells: cell line not specified; for Inhibition of binding of NKp46D2-Ig: HeLa and PC-3, FIGS. 2B, 2C
# T2 construct: residues 101-235 (D2) of the mature NKp46 protein were PCR amplified; CD5 leader peptide (with added Met start codon) (N); made in house
# T2 sequence (O76036 with tags, fused parts or gaps isoform O76036-6): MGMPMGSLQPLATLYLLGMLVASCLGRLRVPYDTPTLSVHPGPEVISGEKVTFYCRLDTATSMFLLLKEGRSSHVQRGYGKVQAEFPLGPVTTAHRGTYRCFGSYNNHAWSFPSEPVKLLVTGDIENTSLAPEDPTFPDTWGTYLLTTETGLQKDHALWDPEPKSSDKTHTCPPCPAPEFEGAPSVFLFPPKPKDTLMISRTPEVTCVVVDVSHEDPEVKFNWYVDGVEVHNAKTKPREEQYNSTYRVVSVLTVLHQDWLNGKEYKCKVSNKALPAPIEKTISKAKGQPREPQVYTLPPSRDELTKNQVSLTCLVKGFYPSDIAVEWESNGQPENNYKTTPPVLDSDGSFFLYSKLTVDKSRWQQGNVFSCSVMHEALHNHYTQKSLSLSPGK
# Experimental: as §1, §2
# HeLa cells [3] = test: Lysis of HeLa cells by primary NK lines (cytotoxicity assay); type: cell-based, human; conditions: FIG. 6A
# Experimental: The cytotoxic activity of NK lines against the various targets was assessed in 5-hr 35S-release assays and in 4-hr Eu release time-resolved fluorescence assays, as previously described (20). In experiments where carbohydrates were included, NK cells were first mixed with the carbohydrates and then added to target cells. […] Each point represents the average of duplicate/triplicate values.
# To test the role of NKp46 and NKp30 recognition of carbohydrates in NK lysis, the lysis of HeLa cells by NKs in the presence of Glyc-PAA was studied.
# NKp30-Ig [4] = target: T3, NKp30-Ig (Homo sapiens, UniProt O14931, P25L); test: Inhibition of NKp30-Ig binding to tumor cells by premixed saccharides (flow cytometry)
# T3 construct: made in house
# T3 sequence (O14931 with tags, fused parts or gaps P25L): as the sequence (O14931 with tags, fused parts or gaps P25L) above
# Experimental: as §1, §2
# LIR1-Ig = target: T4, LIR1-Ig (Homo sapiens, UniProt Q8NHL6); test: Effect of premixed saccharides on LIR1-Ig binding to HeLa cells (flow cytometry); conditions: Glyc-PAA mixed with Ig-fusion protein, FIG. 1A
# T4 construct: made in house
# T4 sequence (Q8NHL6 with tags, fused parts or gaps limits assumed): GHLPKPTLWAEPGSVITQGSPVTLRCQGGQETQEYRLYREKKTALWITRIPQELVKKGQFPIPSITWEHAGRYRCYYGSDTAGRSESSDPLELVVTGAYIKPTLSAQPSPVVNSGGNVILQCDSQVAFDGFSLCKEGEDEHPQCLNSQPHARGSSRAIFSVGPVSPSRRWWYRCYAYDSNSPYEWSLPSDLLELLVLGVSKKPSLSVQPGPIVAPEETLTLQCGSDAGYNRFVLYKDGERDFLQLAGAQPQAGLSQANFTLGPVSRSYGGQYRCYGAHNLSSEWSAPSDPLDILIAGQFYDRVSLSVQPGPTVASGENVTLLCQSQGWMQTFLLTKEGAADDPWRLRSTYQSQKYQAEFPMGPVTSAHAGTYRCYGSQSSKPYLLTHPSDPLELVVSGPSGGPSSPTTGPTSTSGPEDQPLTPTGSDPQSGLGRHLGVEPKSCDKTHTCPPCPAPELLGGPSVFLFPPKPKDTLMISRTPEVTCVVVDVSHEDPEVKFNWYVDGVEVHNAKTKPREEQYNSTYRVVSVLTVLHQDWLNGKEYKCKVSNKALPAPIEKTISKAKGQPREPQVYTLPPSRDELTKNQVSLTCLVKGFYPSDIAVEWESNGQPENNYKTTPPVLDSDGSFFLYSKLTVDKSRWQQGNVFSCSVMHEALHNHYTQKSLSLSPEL
# Experimental: as §1, §2
# NKp46D2-Ig [5] = test: Treatment of tumor cells (GAG-degrading enzymes, glycosylation or GPI-anchor blockers) then staining with NKp46D2-Ig; type: cell-based, human
# Experimental: as §1
# (§3) Tumor cells (10^6) were washed twice in PBS, resuspended in 1ml reaction buffer alone (mock) or reaction buffer containing one of the following GAG-degrading enzymes (Sigma): keratanase (0.94 u/ml, K-2876), heparin lyase I (1.56 u/ml, H-2519) and heparin lyase III (1.25 u/ml, H-8891). Reaction buffer consisted of 1% (w/v) BSA, 1 μg/ml leupeptin and 10 u/ml aprotinin in PBS. Cells were incubated with enzyme for 60 min at 37° C., washed two times with PBS and stained with fusion-Igs as above.
# (§4) The involvement of cell membrane-associated GAGs in the binding of NKp46D2-Ig and NKp30-Ig to their cellular ligands was examined. […]
# NKp30-Ig [6] = test: Treatment of tumor cells (GAG-degrading enzymes, glycosylation or GPI-anchor blockers) then staining with NKp30-Ig; type: cell-based, human
# Experimental: as §1, §3, §4
# [7] = tested on: mutant CHO cells lacking HSPG; test: Binding to mutant CHO cells lacking HSPG; conditions: as compared to wt CHO cells; FIG. 7A
# Experimental: as §1
# To further test the role of NKp46 and NKp30 recognition of carbohydrates in NK lysis, the lysis of CHO mutants lacking HSPG was examined. […] Thus, reduction in binding of NKp46-D2-Ig and NKp30-Ig to tumor cells lacking HSPG is correlated with reduced lysis of these cells by NK cells.
# HeLa cells [8] = test: Staining of HeLa cells with fusion-Igs (flow cytometry); type: binding, human
# Experimental: as §1
# EB-SP = test: Staining of EB-SP cells expressing cell-surface heparanase with fusion-Igs; type: binding, murine; conditions: as compared to parental EB or EB-mock transfected
# Experimental: as §1
# The EB T lymphoma cell line and EB-SP cells that express a functional heparanase on the cell surface (16) were stained with NKp46D2-Ig. […] An alternative interpretation is that the binding is to a cell-surface molecule associated with heparan sulfate. […] Membrane-associated heparan sulfate proteoglycans (HSPGs) can be divided into two families: glypicans, which are attached to the plasma membrane via glycosylphosphatidylinositol (GPI) anchors, and syndecans, which are transmembrane proteins (23). The involvement of GPI-anchored proteins in the binding of NKp30-Ig and NKp46D2-Ig to tumor cells was examined. Treatment of cells with D-mannosamine (white bars) inhibits GPI-anchor formation.
# IV-infected cells = test: Binding of wild type and mutated NKp46D2 fusion proteins to IV-infected cells; conditions: FIG. 10
# Experimental: as §1
# Based on the observations described above, certain site-directed mutations were made in NKp46D2 (Lys 157, Arg 160, His 163 and Arg 166; 4 point mutations) or (Lys 157, Arg 160, His 163, Arg 166, and Lys 170; 5 point mutations) into hydrophilic, neutral, amino acids with residues of similar size and to compare the ability of the mutant and the wild type receptors to bind heparin/heparan sulfate. Two constructs were prepared: Q4 (K157Q, R160Q, H163Q, and R166Q) and Q4T1 (K157Q, R160Q, H163Q, R166Q, and K170T). The mutated referred to herein as SEQ ID NO:29 SEQ ID NO:30.. Corresponding fusion proteins were prepared (NKp46D2-Q4-Ig and NKp46D2-Q4T1-Ig) and compared to NKp46D2-Ig.
# [9] = Glyc-PAA mixed with Ig-fusion protein, HeLa cells, FIG. 1A
# [10] = Glyc-PAA premix, inconsistent inhibition phenotype
# [11] = HeLa cells pretreated with 40mM D-mannosamine overnight, FIG. 4D
# [12] = tumor cells treated before staining
molecule,measurement,setting,value
3′-O-sulfo-LacNAc,Inhibition of binding of NKp30-Ig to tumor cells,NKp30-Ig [1],did not inhibit binding
same,Inhibition of binding of NKp46D2-Ig to tumor cells,NKp46D2-Ig [2],did not inhibit binding
"4 ′, 6′-di-O-sulfo-LacNAc",Inhibition of binding of NKp30-Ig to tumor cells,NKp30-Ig [1],did not inhibit binding
same,Inhibition of binding of NKp46D2-Ig to tumor cells,NKp46D2-Ig [2],did not inhibit binding
6-O-sulfo-LacNAc-PAA,Reduction of lysis of HeLa cells by NK,HeLa cells [3]; 0.9 mM,significant reduction of lysis
same,Reduction of lysis of HeLa cells by NK,"HeLa cells [3]; agent present during lysis assay, Glyc-PAA 0.225 to 0.9 mM, E:T 50:1, 4 h",two fold
same,Inhibition of binding of NKp30-Ig to HeLa cells,NKp30-Ig [4]; [9],inhibited
same,Inhibition of binding of LIR1-Ig to HeLa cells,LIR1-Ig,not the positive binding of LIR1-Ig
same,Inhibition of binding of NKp46D2-Ig to HeLa cells,NKp46D2-Ig [2]; [9],inhibited binding
same,Effect on binding of the fusion proteins after pre-incubation of the cells,"NKp46D2-Ig [2]; cells pre-incubated with the saccharide, followed by wash and application of the fusion proteins",did not affect the binding
6′-O-sulfo-LacNAc,reduction in binding of NKp30-Ig,NKp30-Ig [4]; [10],up to 25%
same,reduction in binding of NKp46D2-Ig,NKp46D2-Ig [2]; [10],up to 25%
N[C@@H]1C(O)O[C@H](CO)[C@@H](O)[C@@H]1O (stereo partly drawn) [D-mannosamine],Reduction of binding of NKp46D2-Ig,NKp46D2-Ig [5]; [11],4 fold
same,Reduction of binding of NKp30-Ig,NKp30-Ig [6]; [11],2 fold
CC(=O)N[C@H]1[C@@H](OCc2ccccc2)O[C@H](CO)[C@H](O)[C@@H]1O [abenzyl-GalNAc],Effect of cell treatment on binding of NKp46D2-Ig,NKp46D2-Ig [5]; [12],significantly reduced the binding
same,Effect of cell treatment on binding of NKp30-Ig,NKp30-Ig [6]; [12],significantly reduced the binding
N-desulfated heparin,Inhibition of NKp46D2-Ig binding by modified heparins,"NKp46D2-Ig [2]; heparins modified in sulfation or acetylation, HeLa cells, FIG. 2D",potent inhibitor
heparan sulfate,Inhibition of binding of NKp30-Ig to tumor cells,NKp30-Ig [1],directly inhibits the binding; also recorded: potent inhibitors
same,Inhibition of binding of NKp46D2-Ig,NKp46D2-Ig [2]; 0.1 μg/ml,inhibit binding
same,Inhibition of binding of NKp46D2-Ig to tumor cells,NKp46D2-Ig [2],directly inhibits the binding; also recorded: potent inhibitors
hyaluronic acid,Inhibition of binding of NKp46D2-Ig,NKp46D2-Ig [2]; incremental concentrations up to 10 μg/ml,did not inhibit binding
B1,Binding to mutant CHO cells lacking HSPG,[7],significantly reduced
same,Binding to HeLa cells,HeLa cells [8],bound well
same,Staining of EB-SP compared with EB,EB-SP,same phenotype
B2,Binding to mutant CHO cells lacking HSPG,[7],significantly reduced
same,Binding to IV-infected cells,IV-infected cells,bind similarly
same,Binding to HeLa cells,HeLa cells [8],bound well
same,Reduction of staining of EB-SP,EB-SP; FIG. 4C,50%
